According to patent US9040712B2, “Thiadiazole analogs thereof and methods for treating SMN-deficiency-related-conditions” (NOVARTIS AG, priority 2013, dated 2015):
Where a name gives a salt, the structure may show the parent alone.

tested on: SMN protein; experiment: cellular SMN ELISA (SMN protein elevation); assay type: cell-based; settings: myoblast cell line derived from SMNdelta7 mouse model; 24 hours compound treatment; concentration range 100 pM-10 uM
Description: A cellular SMN ELISA was used to measure the effects of low molecular weight compounds on SMN protein elevation. Cells from a myoblast cell line derived from the SMNdelta7 mouse model (kind gift from Steve Burden, NYU) were seeded into a 384-well plate at a density of 3000 cells/well and treated with compounds for 24 hours. ELISA capture plates were prepared by coating 384-well plates (Immulon 4HBX) with 0.5 ug/mL of anti-SMN mAb (BD Science, Catalog number 610647) at 4° C. overnight. The plates were washed 5 times with 110 uL of PBS-Tween (0.05% Tween-20, PBST), blocked with 100 uL of 1% BSA in PBST for 2 hours and washed (5 times) with 100 uL of PBST. After 24 hours of compound treatment cells were lysed in a modified RIPA-buffer, on ice for 1 hour. 20 uL of lysate and 20 uL of 1% BSA were then added to the ELISA capture plates and incubated at 4° C. overnight. Plates were washed (5 times) with PBST and then incubated with 1:100 dilution of primary rabbit anti-SMN polyclonal antibody (Santa cruz, Catalog number SC-15320) at room temperature for 1 hour and subsequently washed (5 times) with 110 uL of PBST. This was followed by addition of 1:100 Goat anti-Rabbit IgG-HRP linked (Cell Signaling, Catalog number 7074) secondary antibody for 1 hour. Plates were then washed with PBST and incubated with 40 uL TMB substrate (Cell Signaling, Catalog number 7004L) at room temperature for 1-10 minutes with shaking. The reaction was stopped by addition of 40 uL of stop solution (Cell signaling, Catalog number 7002L) and absorption was measured at 450 nm. Data was reported as fold activation over DMSO control and EC50. ELISA assay condition: compound concentration range 100 pM-10 uM.

Row | SMILES | EC50 [nM] | SMN Activity Fold (fold activation over DMSO control) [fold]
1 | CN(c1nnc(-c2cc3ccccc3nc2O)s1)C1CC(C)(C)NC(C)(C)C1 [Example 23, 3-(5-(Methyl(2,2,6,6-tetramethylpiperidin-4-yl)amino)-1,3,4-thiadiazol-2-yl)quinolin-2-ol] | 231 | 2.66
2 | CN(c1nnc(-c2cc(-n3cccn3)ccc2O)s1)C1CC(C)(C)NC(C)(C)C1 [Example 24, 2-(5-(Methyl(2,2,6,6-tetramethylpiperidin-4-yl)amino)-1,3,4-thiadiazol-2-yl)-4-(1H-pyrazol-1-yl)phenol] | 987 | 2.28
3 | CN(c1nnc(-c2ccc(-c3cnn(C)c3)cc2Cl)s1)C1CC(C)(C)NC(C)(C)C1 [Example 25, 5-(2-Chloro-4-(1-methyl-1H-pyrazol-4-yl)phenyl)-N-methyl-N-(2,2,6,6-tetramethylpiperidin-4-yl)-1,3,4-thiadiazol-2-amine] | 132 | 2.49
4 | CN(c1nnc(-c2c(O)cc(-c3cnn(C)c3)cc2Cl)s1)C1CC(C)(C)NC(C)(C)C1 [Example 26, 3-Chloro-2-(5-(methyl(2,2,6,6-tetramethylpiperidin-4-yl)amino)-1,3,4-thiadiazol-2-yl)-5-(1-methyl-1H-pyrazol-4-yl)phenol] | – | 2.26
5 | Cn1cc(-c2ccc(-c3nnc(NC4CC(C)(C)NC(C)(C)C4)s3)c(Cl)c2)cn1 [Example 27, 5-(2-chloro-4-(1-methyl-1H-pyrazol-4-yl)phenyl)-N-(2,2,6,6-tetramethylpiperidin-4-yl)-1,3,4-thiadiazol-2-amine] | 193 | 2.48
6 | COc1cc(-c2ncc(C)o2)cc(O)c1-c1nnc(N(C)C2CC(C)(C)NC(C)(C)C2)s1 [Example 28, 3-Methoxy-2-(5-(methyl(2,2,6,6-tetramethylpiperidin-4-yl)amino)-1,3,4-thiadiazol-2-yl)-5-(5-methyloxazol-2-yl)phenol] | 20 | 2.70
7 | COc1cc(-n2cccn2)ccc1-c1nnc(C2=CCNCC2)s1 [Example 29, 2-(2-Methoxy-4-(1H-pyrazol-1-yl)phenyl)-5-(1,2,3,6-tetrahydropyridin-4-yl)-1,3,4-thiadiazole] | 879 | 2.46
8 | Oc1cc(-n2cccn2)ccc1-c1nnc(N2CCNCC2)s1 [Example 30, 2-(5-(piperazin-1-yl)-1,3,4-thiadiazol-2-yl)-5-(1H-pyrazol-1-yl)phenol] | 6560 | 1.98
9 | COc1cc2ncccc2cc1-c1nnc(N(C)C2CC(C)(C)NC(C)(C)C2)s1 [Example 31, 5-(7-Methoxyquinolin-6-yl)-N-methyl-N-(2,2,6,6-tetramethylpiperidin-4-yl)-1,3,4-thiadiazol-2-amine] | 113 | 2.43
10 | CN(c1nnc(-c2cc3cccnc3cc2O)s1)C1CC(C)(C)NC(C)(C)C1 [Example 32, 6-(5-(Methyl(2,2,6,6-tetramethylpiperidin-4-yl)amino)-1,3,4-thiadiazol-2-yl)quinolin-7-ol] | 256 | 2.48
11 | COc1cc(C#N)ccc1-c1nnc(N(C)C2CC(C)(C)NC(C)(C)C2)s1 [Example 33, 3-methoxy-4-(5-(methyl(2,2,6,6-tetramethyl-piperidin-4-yl)amino)-1,3,4-thiadiazol-2-yl) benzonitrile] | 1040 | 2.16
12 | CN(c1nnc(-c2ccc(C#N)cc2F)s1)C1CC(C)(C)NC(C)(C)C1 [Example 34, 3-fluoro-4-(5-(methyl(2,2,6,6-tetramethylpiperidin-4-yl)amino)-1,3,4-thiadiazol-2-yl)benzonitrile] | > 10000 | 2.32
13 | COC(=O)c1ccc(-c2nnc(N(C)C3CC(C)(C)NC(C)(C)C3)s2)c(F)c1 [Example 35, methyl 3-fluoro-4-(5-(methyl(2,2,6,6-tetramethyl-piperidin-4-yl)amino)-1,3,4-thiadiazol-2-yl) benzoate] | 864 | 2.81
14 | CNc1ccn(-c2ccc(-c3nnc(N(C)C4CC(C)(C)NC(C)(C)C4)s3)c(OC)c2)n1 [Example 36, 5-(2-methoxy-4-(3-(methylamino)-1H-pyrazol-1-yl)phenyl)-N-methyl-N-(2,2,6,6-tetramethyl-piperidin-4-yl)-1,3,4-thiadiazol-2-amine] | 163 | 2.15
15 | COc1cc2nc(C#N)ccc2cc1-c1nnc(N(C)C2CC(C)(C)NC(C)(C)C2)s1 [Example 37, 7-methoxy-6-(5-(methyl(2,2,6,6-tetramethyl-piperidin-4-yl)amino)-1,3,4-thiadiazol-2-yl) quinoline-2-carbonitrile] | 78 | 2.19
16 | COc1cc(-c2ccn(C)c(=O)c2)ccc1-c1nnc(OC2CC(C)(C)NC(C)(C)C2)s1 [Example 38, 4-(3-methoxy-4-(5-((2,2,6,6-tetramethyl-piperidin-4-yl)oxy)-1,3,4-thiadiazol-2-yl)phenyl)-1-methylpyridin-2(1H)-one] | 1520 | 2.12
17 | CN(c1nnc(-c2ccc(-c3ccn(C)c(=O)c3)cc2Cl)s1)C1CC(C)(C)NC(C)(C)C1 [Example 39, 4-(3-chloro-4-(5-(methyl(2,2,6,6-tetramethyl-piperidin-4-yl)amino)-1,3,4-thiadiazol-2-yl)phenyl)-1-methylpyridin-2(1H)-one] | 50 | 2.31
18 | CN(c1nnc(-c2ccc(-c3cn[nH]c3)cc2Cl)s1)C1CC(C)(C)NC(C)(C)C1 [Example 40, 5-(2-chloro-4-(1H-pyrazol-4-yl)phenyl)-N-methyl-N-(2,2,6,6-tetramethylpiperidin-4-yl)-1,3,4-thiadiazol-2-amine] | 34 | 2.55
19 | CN(c1nnc(-c2ccc(-c3cnn4c3CCCC4)cc2Cl)s1)C1CC(C)(C)NC(C)(C)C1 [Example 41, 5-(2-chloro-4-(4,5,6,7-tetrahydropyrazolo[1,5-a]pyridin-3-yl)phenyl)-N-methyl-N-(2,2,6,6-tetramethylpiperidin-4-yl)-1,3,4-thiadiazol-2-amine] | 507 | 2.44
20 | CN(c1nnc(-c2ccc(-c3cnn(C)c3)cn2)s1)C1CC(C)(C)NC(C)(C)C1 [Example 42, N-methyl-5-(5-(1-methyl-1H-pyrazol-4-yl)pyridin-2-yl)-N-(2,2,6,6-tetramethylpiperidin-4-yl)-1,3,4-thiadiazol-2-amine. Hydrochloride salt] | 675 | 2.32
21 | Cn1cc(-c2ccc(-c3nnc(OC4CC(C)(C)NC(C)(C)C4)s3)c(Cl)c2)cn1 [Example 43, 2-(2-chloro-4-(1-methyl-1H-pyrazol-4-yl)phenyl)-5-((2,2,6,6-tetramethylpiperidin-4-yl)oxy)-1,3,4-thiadiazole] | 446 | 2.28
22 | COc1ccc(-c2ccc(-c3nnc(N(C)C4CC(C)(C)NC(C)(C)C4)s3)c(Cl)c2)cn1 [Example 44, 5-(2-chloro-4-(6-methoxypyridin-3-yl)phenyl)-N-methyl-N-(2,2,6,6-tetramethylpiperidin-4-yl)-1,3,4-thiadiazol-2-amine] | 4920 | 2.26
23 | CN(c1nnc(-c2ccc(-c3ccc(N)nc3)cc2F)s1)C1CC(C)(C)NC(C)(C)C1 [Example 45, 5-(4-(6-aminopyridin-3-yl)-2-fluorophenyl)-N-methyl-N-(2,2,6,6-tetramethylpiperidin-4-yl)-1,3,4-thiadiazol-2-amine] | 163 | 2.26
24 | Cc1cc(-c2ccc(-c3nnc(N(C)C4CC(C)(C)NC(C)(C)C4)s3)c(F)c2)[nH]n1 [Example 46, 5-(2-fluoro-4-(3-methyl-1H-pyrazol-5-yl)phenyl)-N-methyl-N-(2,2,6,6-tetramethylpiperidin-4-yl)-1,3,4-thiadiazol-2-amine] | 122 | 2.32
25 | CN(c1nnc(-c2ccc(-c3ccn[nH]3)cc2F)s1)C1CC(C)(C)NC(C)(C)C1 [Example 47, 5-(2-fluoro-4-(1H-pyrazol-5-yl)phenyl)-N-methyl-N-(2,2,6,6-tetramethylpiperidin-4-yl)-1,3,4-thiadiazol-2-amine] | 152 | 2.29
26 | CN(c1nnc(-c2ccc(-c3cn[nH]c3)c(F)c2F)s1)C1CC(C)(C)NC(C)(C)C1 [Example 48, 5-(2,3-difluoro-4-(1H-pyrazol-4-yl)phenyl)-N-methyl-N-(2,2,6,6-tetramethylpiperidin-4-yl)-1,3,4-thiadiazol-2-amine] | 33 | 3.04
